# Assay results from patent US9066516B2, “Uses of thaxtomin and thaxtomin compositions as herbicides” (priority 2008, dated 2015).
# Legend:
# Type in all cases: in vivo
# Rice (variety M209) = test: Field study on rice, yield (Example 6); conditions: Thaxtomin A 180 g/acre
# Protocol: The efficacy of thaxtomin A derived from a liquid culture of S. acidiscabies is tested in a field study on rice using 4.9 sq-ft plots surrounded by a metal ring. Treatments with either thaxtomin A or thaxtomin A in combination with lemongrass oil (formulated as GreenMatch EX) or cyhalofop (formulated as Clincher CA) were done using a hand-held sprayer with a water volume corresponding to 57 gallons per acre. Rice (variety M209) was grown until maturity and harvested by hand for yield and weed count assessment. Results of yield (kg/ha), and numbers of redstem, small-flower umbrella sedge, and sprangletop in each plot are presented in Table 3 below.
# crabgrass [1] = test: Greenhouse synergy test MBI-005 + field crop herbicides (Example 11); conditions: 14 days
# Protocol: […] other herbicides commonly used for field crops, glyphosate, glufosinate, synthetic version of bialaphos, and mesotrione were also tested for synergy with MBI-005 on crabgrass and ragweed.
# There were 3 replicates per treatment which were sprayed with approximately ⅔ ml per replicate. The treatments were completely randomized and kept in a greenhouse at 25° C. The efficacy was rated at 7 and 14 days post treatment.
# Bluegrass (Poa annua) = test: Pre-emergence test of MBI-005, lab & field (Example 12); conditions: pre-emergent; note: ranges in brackets are in %
# Protocol: (§1) To further describe the spectrum of pre-emergence activity, tests were conducted in laboratory and field conditions. In laboratory testing, 35 seeds were placed on a ring of blotter paper inside a 3 cm petri dish and supplied with 4 ml of MBI-005 (≦0.1 mg MBI-005/ml). Water was used as a negative control and oryzalin applied as a positive control. Petri dishes were randomly placed in a growth room at 25° C. and 50% RH. Treatments were replicated three times and germinated seeds were counted 7 and 14 days after application; water was added as necessary to maintain moisture levels inside each petri dish.
# (§2) In field testing, field soil containing weed seeds were treated with 38.2 L MBI-005/ha at a spray volume of 280 L/ha using a CO2 sprayer with flat fan nozzles. Treatments, including water as the negative control and Gallery as the positive control, were replicated four times and applied twice at a four week interval. Treatments were evaluated visually as % cover and above-ground fresh weights per container were taken.
# [2] = tested on: Crabgrass (Digitaria sanguinalis); test: as above; conditions: pre-emergent; note: ranges in brackets are in %
# Protocol: as §1, §2
# [3] = tested on: Common groundsel (Senecio vulgaris); test: Pre-emergence test of MBI-005, field (Example 12); conditions: pre-emergent; note: ranges in brackets are in %
# Protocol: as §2
# [4] = tested on: Common yellow oxalis (Oxalis stricta); test: Pre-emergence test of MBI-005, field (Example 12); conditions: pre-emergent; note: ranges in brackets are in %
# Protocol: as §2
# [5] = tested on: Dandelion (Taraxacum oficinale); test: Pre-emergence test of MBI-005, field (Example 12); conditions: pre-emergent; note: ranges in brackets are in %
# Protocol: as §2
# [6] = tested on: Flexuous bittercress (Cardamine flexuosa); test: Pre-emergence test of MBI-005, field (Example 12); conditions: pre-emergent; note: ranges in brackets are in %
# Protocol: as §2
# [7] = tested on: Hairy galinsoga (Galinsoga ciliata); test: Pre-emergence test of MBI-005, field (Example 12); conditions: pre-emergent; note: ranges in brackets are in %
# Protocol: as §2
# [8] = tested on: New Zealand moss (Sagina procumbens); test: Pre-emergence test of MBI-005, field (Example 12); conditions: pre-emergent; note: ranges in brackets are in %
# Protocol: as §2
# [9] = tested on: Shepherd's purse (Capsella bursa-pastora); test: Pre-emergence test of MBI-005, field (Example 12); conditions: pre-emergent; note: ranges in brackets are in %
# Protocol: as §2
# [10] = tested on: Velvetleaf (Abutilon theophrasti); test: Pre-emergence test of MBI-005, field (Example 12); conditions: pre-emergent; note: ranges in brackets are in %
# Protocol: as §2
# [11] = tested on: Bindweed (Convolvulus arvensis); test: Post-emergence test of MBI-005, lab (Example 13)
# Protocol: (§3) To further describe the spectrum of post-emergence activity, tests were conducted in laboratory and field conditions. For laboratory testing, 3-10 plants (depending on the species) at the 1-2 leaf stage plants in 2.5 cm square pots containing Sunshine Mix No. 2 planting media were sprayed at 1 mg MBI-005/mL at a rate of 40 gal/A using a cabinet track sprayer. Negative controls were sprayed with water and positive controls with glufosinate. Pots were randomly placed in a growth room at 25° C. and 50% RH, and watered as necessary. Treatments were replicated five times and evaluated at 7 and 14 days for visual % damage, with 0% indicating no damage and 100% indicating plant death.
# [12] = tested on: Dandelion (Taraxacum oficinale); test: Post-emergence test of MBI-005, lab (Example 13)
# Protocol: as §3
# [13] = tested on: Lambsquarters (Chenopodium album); test: Post-emergence test of MBI-005, lab (Example 13)
# Protocol: as §3
# [14] = tested on: Mallow (Malva parviflora); test: Post-emergence test of MBI-005, lab (Example 13)
# Protocol: as §3
# [15] = tested on: Mustard (Brassica juncea); test: Post-emergence test of MBI-005, lab (Example 13)
# Protocol: as §3
# [16] = tested on: Redstem filaree (Erodium cicutarium); test: Post-emergence test of MBI-005, lab (Example 13)
# Protocol: as §3
# [17] = tested on: Sunflower (Helianthus anuus); test: Post-emergence test of MBI-005, lab (Example 13)
# Protocol: as §3
# [18] = tested on: Yellow nutsedge (Cyperus esculentus); test: Post-emergence test of MBI-005, lab (Example 13)
# Protocol: as §3
# crabgrass [19] = test: Post-emergent MBI-005 + Chelated Fe on crabgrass (Example 16); conditions: 15 DAT
# Protocol: Ten seedlings in 2.5 cm square pots containing plant growth mix were sprayed with two suboptimal rates of MBI-005, 14.49 mg/mL of Chelated Fe, or a combination thereof, at a volume of 40 gal/A using a cabinet track sprayer. Negative controls were sprayed with water. Pots were randomly placed in a growth room at 25° C. and 50% RH, and watered as necessary. Treatments were replicated five times and evaluated at 7 and 15 days for visual % damage, with 0% indicating no damage and 100% indicating plant death.
# (§4) Synergy was calculated as the ratio of observed (E) to expected (E/Ee) percent control using Colby's formula.
# barnyard grass = test: Post-emergent MBI-005 + Propanil on barnyard grass (Example 20); conditions: 14 days
# Protocol: Negative controls were sprayed with water. Pots were randomly placed in a growth room at 25° C. and 50% RH, and watered as necessary. Treatments were replicated three times and evaluated at 7 and 14 days for visual % damage, with 0% indicating no damage and 100% indicating plant death.
# as §4
# [20] = tested on: annual broadleaves, sedges and grasses; test: Post-emergence spectrum of MBI-005, overall (Example 13); conditions: unless surfactants are added
# Protocol: as §3
# In field testing, field soil containing weeds at the 1-5 leaf stage were treated with 38.2 L MBI-005/ha at a spray volume of 374 L/ha. Treatments, including water as the negative control and WeedBGon or Preen Broadleaf as the positive control, were replicated four times and applied twice at a four week interval. The positive control on Late watergrass, Ricefield Bulrush, Smallflower sedge and Arrowhead was an herbicide containing as active ingredient 2,4-D and an organosilicone surfactant was added to MBI-005. Treatments were assessed for % control and % ground cover.
# Post-emergent control of perennials was generally limited except for Oxalis pes-caprae.
compound,measurement,setting,value
CN1C(=O)[C@](O)(Cc2cccc(O)c2)N(C)C(=O)[C@@H]1Cc1c[nH]c2cccc([N+](=O)[O-])c12 [thaxtomin A],Yield (kg/ha),Rice (variety M209); listed as Thaxtomin A,7876b kg/ha
same,Yield (kg/ha),Rice (variety M209); listed as thaxtomin,no effect
same,% Control MBI-005,crabgrass [1]; MBI-005 0.125 mg/mL (glufosinate line),20.0%
same,% Control MBI-005,crabgrass [1]; MBI-005 0.125 mg/mL (glyphosate line),28.3%
same,Rating at 0.1 mg/ml (Reduction of Germination),Bluegrass (Poa annua),++++ (95-100)
same,Rating at 0.1 mg/ml (Reduction of Germination),[2],++++ (95-100)
same,Rating at 0.1 mg/ml (Reduction of Germination),[3],++++ (95-100)
same,Rating at 0.1 mg/ml (Reduction of Germination),[4],++++ (95-100)
same,Rating at 0.1 mg/ml (Reduction of Germination),[5],++++ (95-100)
same,Rating at 0.1 mg/ml (Reduction of Germination),[6],++ (60-84)
same,Rating at 0.1 mg/ml (Reduction of Germination),[7],+++ (85-94)
same,Rating at 0.1 mg/ml (Reduction of Germination),[8],++++ (95-100)
same,Rating at 0.1 mg/ml (Reduction of Germination),[9],++++ (95-100)
same,Rating at 0.1 mg/ml (Reduction of Germination),[10],++ (60-84)
same,Rating at 1 mg/ml (Post-Emergence % control),[11],+ (0-50)
same,Rating at 1 mg/ml (Post-Emergence % control),[12],++ (51-80)
same,Rating at 1 mg/ml (Post-Emergence % control),[13],+++ (81-90)
same,Rating at 1 mg/ml (Post-Emergence % control),[14],+ (0-50)
same,Rating at 1 mg/ml (Post-Emergence % control),[15],++++ (91-100)
same,Rating at 1 mg/ml (Post-Emergence % control),[16],++ (51-80)
same,Rating at 1 mg/ml (Post-Emergence % control),[17],++ (51-80)
same,Rating at 1 mg/ml (Post-Emergence % control),[18],+ (0-50)
same,AVG E (visual % damage),crabgrass [19]; 12.5% MBI-005 (0.125 mg/mL),1.3%
same,AVG E (visual % damage),crabgrass [19]; 25% MBI-005 (0.25 mg/mL),1.3%
same,Observed Average % Efficacy (E),barnyard grass; 12.5% MBI-005 (of label rate),10.0%
same,Observed Average % Efficacy (E),barnyard grass; 25% MBI-005 (of label rate),20.0%
same,post-emergent activity,[20],limited post-emergent activity
